{"source": "patent US20160051527A1", "about": "“METHODS AND KITS FOR TREATING AND CLASSIFYING INDIVIDUALS AT RISK OF OR SUFFERING FROM A NEUROLOGICAL DYSFUNCTION OR DISORDER” (priority 2013, published 2016)", "test_system": "patients with a single variant in the ChAT gene (340L>F or 510R>Q)", "test": "Clinical response to medications prior to sequencing in patients carrying a ChAT gene variant", "conditions": "2/2 patients, dampens opposing sympathetic activity"}
{"smiles": "CC(C)NCC(O)COc1cccc2ccccc12", "note": "(stereo not shown) [propranolol]", "values": [{"measurement": "clinical response", "value": "clinical improvement"}]}
